Measurements published in US20240239752A1, “BICYCLIC HETEROAROMATIC INHIBITORS OF KLK5” (BioCryst Pharmaceuticals, Inc., priority 2021, published 2024).

target: T1, recombinant human KLK5 (Homo sapiens, UniProt Q9Y337); experiment: Kallikrein (KLK) 5 enzymatic assay (Boc-VPR-AMC fluorogenic substrate); type: biochemical; conditions: recombinant human KLK5 0.1 μg/well, Boc-VPR-AMC 100 μM, pH 7.5, room temperature, 1% DMSO; tested a minimum of three times
T1 construct: purchased Novoprotein or R&D Systems C415 or 1108-SE
T1 sequence (Q9Y337 23-293): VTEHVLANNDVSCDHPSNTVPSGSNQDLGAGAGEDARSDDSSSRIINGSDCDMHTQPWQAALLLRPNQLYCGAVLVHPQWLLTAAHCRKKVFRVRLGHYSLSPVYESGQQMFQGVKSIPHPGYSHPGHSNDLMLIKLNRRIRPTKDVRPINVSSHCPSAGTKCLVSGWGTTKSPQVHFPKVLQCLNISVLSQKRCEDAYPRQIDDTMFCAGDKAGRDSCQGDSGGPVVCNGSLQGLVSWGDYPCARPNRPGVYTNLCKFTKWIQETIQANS
Outline: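 Recombinant human KLK5 (0.1 μg/well) was preincubated with compound at room temperature in 0.1 M NaH2PO4, pH 7.5, 1% DMSO, then started with 100 μM Boc-VPR-AMC. The rate was followed at 380/460 nm, and IC50 came from percent inhibition relative to enzyme alone, with at least three runs.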

IC50 [nM] | Structure (SMILES)
> 10000 | CC(C)n1nc(COc2ccccc2CC(=O)O)c2cc(-c3ccc4nc(N)oc4c3)ccc21 [Compound 105c, 2-(2-((5-(2-aminobenzo[d]oxazol-6-yl)-1-isopropyl-1H-indazol-3-yl)methoxy)phenyl)acetic acid]
< 1000 | Nc1nccc2c(-c3cc(-c4ccoc4)c4c(c3)c(COc3ccccc3CC(=O)O)nn4C3CCCCO3)cccc12 (centres unmarked) [Compound 106g, 2-(2-((5-(1-aminoisoquinolin-5-yl)-7-(furan-3-yl)-1-(tetrahydro-2H-pyran-2-yl)-1H-indazol-3-yl)methoxy)phenyl)acetic acid]
< 1000 | Nc1nccc2c(-c3cc(NCC4CC4)c4c(c3)c(COc3ccccc3CC(=O)O)nn4C3CCCCO3)cccc12 (centres unmarked) [Compound 107d, 2-(2-((5-(1-aminoisoquinolin-5-yl)-7-((cyclopropylmethyl)amino)-1-(tetrahydro-2H-pyran-2-yl)-1H-indazol-3-yl)methoxy)phenyl)acetic acid]
< 1000 | N#Cc1cc(-c2cccc3c(N)nccc23)cc2c(COc3ccccc3CC(=O)O)nn(C3CCCCO3)c12 (centres unmarked) [Compound 108c, 2-(2-((5-(1-aminoisoquinolin-5-yl)-7-cyano-1-(tetrahydro-2H-pyran-2-yl)-1H-indazol-3-yl)methoxy)phenyl)acetic acid]
1000 to 10000 | Nc1nccc2ccc(-c3ccc4nn(C5CCOC5)c(COc5ccccc5CC(=O)O)c4c3)cc12 (centres unmarked) [Compound 109b, 2-(2-((5-(1-aminoisoquinolin-7-yl)-2-(tetrahydrofuran-3-yl)-2H-indazol-3-yl)methoxy)phenyl)acetic acid]
< 1000 | CCC(CC)n1nc(COc2ccccc2CC(=O)O)c2cc(-c3ccc4ccnc(N)c4c3)ccc21 [Compound 110e, 2-(2-((5-(1-aminoisoquinolin-7-yl)-1-(pentan-3-yl)-1H-indazol-3-yl)methoxy)phenyl)acetic acid]
< 1000 | COCCn1nc(COc2ccccc2CC(=O)O)c2cc(-c3ccc4ccnc(N)c4c3)ccc21 [Compound 111e, 2-(2-((5-(1-aminoisoquinolin-7-yl)-1-(2-methoxyethyl)-1H-indazol-3-yl)methoxy)phenyl)acetic acid]
< 1000 | Nc1nccc2ccc(-c3ccc4c(c3)c(COc3ccccc3CC(=O)O)nn4C3CC4(CCC4)C3)cc12 [Compound 112e, 2-(2-((5-(1-aminoisoquinolin-7-yl)-1-(spiro[3.3]heptan-2-yl)-1H-indazol-3-yl)methoxy)phenyl)acetic acid]
1000 to 10000 | Nc1nccc2ccc(-c3ccc4nn([C@H]5CCN(CCO)C5)c(COc5ccccc5CC(=O)O)c4c3)cc12 [Compound 113h, (S)-2-(2-((5-(1-aminoisoquinolin-7-yl)-2-(1-(2-hydroxyethyl)pyrrolidin-3-yl)-2H-indazol-3-yl)methoxy)phenyl)acetic acid]
< 1000 | Nc1nccc2c(-c3ccc4nn([C@H]5CCN(CC(=O)O)C5)c(COc5ccccc5CC(=O)O)c4c3)cccc12 [Compound 114d, (S)-2-(2-((5-(1-aminoisoquinolin-5-yl)-2-(1-(carboxymethyl)pyrrolidin-3-yl)-2H-indazol-3-yl)methoxy)phenyl)acetic acid]
1000 to 10000 | Nc1nccc2c(-c3ccc4nn([C@H]5CCN(CCO)C5)c(COc5ccccc5CC(=O)O)c4c3)cccc12 [Compound 115b, (S)-2-(2-((5-(1-aminoisoquinolin-5-yl)-2-(1-(2-hydroxyethyl)pyrrolidin-3-yl)-2H-indazol-3-yl)methoxy)phenyl)acetic acid]
1000 to 10000 | Nc1nccc2ccc(-c3ccc4nn([C@H]5CCN(CC(=O)O)C5)c(COc5ccccc5CC(=O)O)c4c3)cc12 [Compound 116b, (S)-2-(2-((5-(1-aminoisoquinolin-7-yl)-2-(1-(carboxymethyl)pyrrolidin-3-yl)-2H-indazol-3-yl)methoxy)phenyl)acetic acid]
1000 to 10000 | COCCN1CC[C@H](n2nc3ccc(-c4cccc5c(N)nccc45)cc3c2COc2ccccc2CC(=O)O)C1 [Compound 117c, (S)-2-(2-((5-(1-aminoisoquinolin-5-yl)-2-(1-(2-methoxyethyl)pyrrolidin-3-yl)-2H-indazol-3-yl)methoxy)phenyl)acetic acid]
1000 to 10000 | COCCN1CC[C@H](n2nc3ccc(-c4ccc5ccnc(N)c5c4)cc3c2COc2ccccc2CC(=O)O)C1 [Compound 118b, (S)-2-(2-((5-(1-aminoisoquinolin-7-yl)-2-(1-(2-methoxyethyl)pyrrolidin-3-yl)-2H-indazol-3-yl)methoxy)phenyl)acetic acid]
1000 to 10000 | Nc1nccc2ccc(-c3ccc4nn(C5CN(CCO)C5)c(COc5ccccc5CC(=O)O)c4c3)cc12 [Compound 119h, 2-(2-((5-(1-aminoisoquinolin-7-yl)-2-(1-(2-hydroxyethyl)azetidin-3-yl)-2H-indazol-3-yl)methoxy)phenyl)acetic acid]
< 1000 | COCCN1CC(n2nc3ccc(-c4cccc5c(N)nccc45)cc3c2COc2ccccc2CC(=O)O)C1 [Compound 120c, 2-(2-((5-(1-aminoisoquinolin-5-yl)-2-(1-(2-methoxyethyl)azetidin-3-yl)-2H-indazol-3-yl)methoxy)phenyl)acetic acid]
< 1000 | CC(C)CCN1CC(n2nc3ccc(-c4cccc5c(N)nccc45)cc3c2COc2ccccc2CC(=O)O)C1 [Compound 121c, 2-(2-((5-(1-aminoisoquinolin-5-yl)-2-(1-isopentylazetidin-3-yl)-2H-indazol-3-yl)methoxy)phenyl)acetic acid]
1000 to 10000 | COCCN1CC(n2nc3ccc(-c4ccc5ccnc(N)c5c4)cc3c2COc2ccccc2CC(=O)O)C1 [Compound 122b, 2-(2-((5-(1-aminoisoquinolin-7-yl)-2-(1-(2-methoxyethyl)azetidin-3-yl)-2H-indazol-3-yl)methoxy)phenyl)acetic acid]
1000 to 10000 | Nc1nccc2c(-c3ccc4nn(C5CN(CCO)C5)c(COc5ccccc5CC(=O)O)c4c3)cccc12 [Compound 123b, 2-(2-((5-(1-aminoisoquinolin-5-yl)-2-(1-(2-hydroxyethyl)azetidin-3-yl)-2H-indazol-3-yl)methoxy)phenyl)acetic acid]
1000 to 10000 | CC(C)CCN1CC(n2nc3ccc(-c4ccc5ccnc(N)c5c4)cc3c2COc2ccccc2CC(=O)O)C1 [Compound 124b, 2-(2-((5-(1-aminoisoquinolin-7-yl)-2-(1-isopentylazetidin-3-yl)-2H-indazol-3-yl)methoxy)phenyl)acetic acid]
1000 to 10000 | CCOC(=O)N1CC(n2nc3ccc(-c4cccc5c(N)nccc45)cc3c2COc2ccccc2CC(=O)O)C1 [Compound 126c, 2-(2-((5-(1-aminoisoquinolin-5-yl)-2-(1-(ethoxycarbonyl)azetidin-3-yl)-2H-indazol-3-yl)methoxy)phenyl)acetic acid]
1000 to 10000 | CCOC(=O)N1CC(n2nc3ccc(-c4ccc5ccnc(N)c5c4)cc3c2COc2ccccc2CC(=O)O)C1 [Compound 127b, 2-(2-((5-(1-aminoisoquinolin-7-yl)-2-(1-(ethoxycarbonyl)azetidin-3-yl)-2H-indazol-3-yl)methoxy)phenyl)acetic acid]
1000 to 10000 | CCC(=O)N1CC(n2nc3ccc(-c4ccc5ccnc(N)c5c4)cc3c2COc2ccccc2CC(=O)O)C1 [Compound 128c, 2-(2-((5-(1-aminoisoquinolin-7-yl)-2-(1-propionylazetidin-3-yl)-2H-indazol-3-yl)methoxy)phenyl)acetic acid]
1000 to 10000 | CCC(=O)N1CC(n2nc3ccc(-c4cccc5c(N)nccc45)cc3c2COc2ccccc2CC(=O)O)C1 [Compound 129b, 2-(2-((5-(1-aminoisoquinolin-5-yl)-2-(1-propionylazetidin-3-yl)-2H-indazol-3-yl)methoxy)phenyl)acetic acid]
< 1000 | CCS(=O)(=O)N1CC(n2nc3ccc(-c4cccc5c(N)nccc45)cc3c2COc2ccccc2CC(=O)O)C1 [Compound 130c, 2-(2-((5-(1-aminoisoquinolin-5-yl)-2-(1-(ethylsulfonyl)azetidin-3-yl)-2H-indazol-3-yl)methoxy)phenyl)acetic acid]
< 1000 | CC(C)CCN1CCC(n2nc3ccc(-c4ccc5ccnc(N)c5c4)cc3c2COc2ccccc2CC(=O)O)CC1 [Compound 131h, 2-(2-((5-(1-aminoisoquinolin-7-yl)-2-(1-isopentylpiperidin-4-yl)-2H-indazol-3-yl)methoxy)phenyl)acetic acid]
< 1000 | CC(C)CCN1CCC(n2nc3ccc(-c4cccc5c(N)nccc45)cc3c2COc2ccccc2CC(=O)O)CC1 [Compound 132b, 2-(2-((5-(1-aminoisoquinolin-5-yl)-2-(1-isopentylpiperidin-4-yl)-2H-indazol-3-yl)methoxy)phenyl)acetic acid]
> 10000 | CCS(=O)(=O)N1CC(n2nc3ccc(-c4ccc5ccnc(N)c5c4)cc3c2COc2ccccc2CC(=O)O)C1 [Compound 133b, 2-(2-((5-(1-aminoisoquinolin-7-yl)-2-(1-(ethylsulfonyl)azetidin-3-yl)-2H-indazol-3-yl)methoxy)phenyl)acetic acid]

Structure (SMILES) | IC50 [nM]
CC(C)(C)OC(=O)N1CC(n2nc3ccc(-c4cccc5c(N)nccc45)cc3c2COc2ccccc2CC(=O)O)C1 [Compound 125b, 2-(2-((5-(1-aminoisoquinolin-5-yl)-2-(1-(tert-butoxycarbonyl)azetidin-3-yl)-2H-indazol-3-yl)methoxy)phenyl)acetic acid] | < 1000
